Assays:
[1] = background statement, no reference given, cited from earlier work
[2] = single agent in a phase I trial; cited from earlier work
[3] = test system: patients with advanced solid tumors; test: Phase I 3+3 dose escalation: DLT, MTD and recommended dose; conditions: in vivo, iv

Cilengitide
route of clearance [1]: predominantly renally cleared | terminal half-life [1]: 3 to 5 h | minimum washout ([1]; estimated): 24 h | maximum tolerated dose (MTD), single agent [2]: not reached | recommended dose of cilengitide for subsequent study (recommended phase II dose) [3]: 2000 mg
